Experimental data published in publication PMC11604048, “Constrained TACC3 peptidomimetics for a non-canonical protein–protein interface elucidate allosteric communication in Aurora-A kinase” (Chemical Science, 2024).
Positions count from the first letter of the chain named. Names and notes keep the numbering of the source. Values belong to the molecule of their own block, whether it stands above or below them. *1 amine or outer side, *2 acyl side, *3 side chain or, on linkers, in order; H or OH if unused. Where a SMILES comes first, the peptide text is derived from it. Bridges are numbered along the chain shown (N, C = ends). [ ]: non-standard residue; d: D form. Biphenyl(4,4'-CH2)2 = c1cc(-c2ccc(C[*:2])cc2)ccc1C[*:1]; Pro(trans-4-F) = O=C(O)[C@@H]1C[C@@H](F)CN1; Phe(4-I) = N[C@@H](Cc1ccc(I)cc1)C(=O)O

Tests used:
[1] = target: T1, Aurora-A122-403-C290A/C393A (Homo sapiens, UniProt O14965, C290A/C393A); assay: Competition FA assay against FAM-Ahx-TACC3 522-536 tracer; type: binding; settings: SD; read-out: IC50
T1 construct: Human Aurora-A kinase domain 122-403 wild-type or C290A/ C393A mutant; His tag (pET30TEV vector) (N, cleaved yes); made in house; host or cells: E. coli RIL, co-expressed with lambda phosphatase (Aurora-A); tracer by solid phase synthesis
T1 sequence (O14965 122-403 C290A/C393A): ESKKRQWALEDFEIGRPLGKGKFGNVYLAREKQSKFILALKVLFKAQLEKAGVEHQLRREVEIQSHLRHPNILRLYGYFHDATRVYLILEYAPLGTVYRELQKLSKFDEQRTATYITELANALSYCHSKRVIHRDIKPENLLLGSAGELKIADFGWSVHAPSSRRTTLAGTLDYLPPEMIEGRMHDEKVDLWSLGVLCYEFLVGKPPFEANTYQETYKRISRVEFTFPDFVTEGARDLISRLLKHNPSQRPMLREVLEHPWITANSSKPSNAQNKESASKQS

[2] = target: T1, Aurora-A122-403-C290A/C393A; assay: Isothermal titration calorimetry (ITC); type: binding; settings: for -TΔS° / Kd / N (stoichiometry) / ΔG° / ΔH°: ITC as E13
Description: Isothermal titration calorimetry (ITC). ITC experiments were carried out using a MicroCal PEAQ-ITC system (Malvern Panalytical) at 25 °C. A stock solution of Aurora-A 122-403-290A/C393A was dialyzed into ITC buffer overnight (25 mM Tris buffer, pH= 7.5; 150 mM NaCl; 5 mM MgCl2; 5 % v/v glycerol), and the same buffer was employed to resuspend a solid portion of the testing peptides. For each experiment, initially, the cell was filled with 275 µl of Aurora-A122-403-290A/C393A (46 μM) and the syringe was loaded with the corresponding peptide at 1.25 mM concentration. An initial injection of 0.5 μL was then followed by 13 injections of 3 μL, every 150 s, with a constant syringe rotation speed of 750 rpm throughout. The signal for the enthalpy of dilution of each peptide into buffer was independently measured in a control titration experiment and then subtracted from the experimental binding traces. The Kd, ΔG°, ΔH° and -TΔS° values were determined via the MicroCal PEAQ-ITC analysis software (Malvern Paranalytical) using a single-site binding model. […]

[3] = Peptide enzymatic degradation assay, α-chymotrypsin; type: in vitro ADME, bovine; settings: α-chymotrypsin (bovine pancreas), peptide 100 µM, peptide/enzyme molar ratio [P]/[E]= 25, HEPES 25 mM, pH 7.5, 25 °C, 6 hours; RP-HPLC peak area, exponential decay fit; three independent experiments, mean ± SD; SD; read-out: t1/2 in the presence of α-chymotrypsin
Description: (§1) into individual aliquots at -20 °C. […]
(§2) a concentration of 1 mg mL−1 concentration. The digestion samples were immediately prepared by mixing […]
(§3) were then incubated at 25 °C for 6 hours. […]
(§4) thermo-shaker for 6 hours. […]
(§5) presence of enzyme (t=0). […]
(§6) r = r଴ + A x e భ Eq. (SI - 10)
(§7) τ = tଵ ln(2) Eq. (SI - 11)
(§8) In all cases, control samples were […]
(§9) replicates and error bars indicating the corresponding SD. […]

[4] = target: T2, α-chymotrypsin (bovine pancreas) (Bos taurus, UniProt P00766); assay: as above; type: in vitro ADME; settings: as E58; for stability to α-chymotrypsin (in words): compared with WT sequence
T2 construct: purchased Sigma; host or cells: bovine pancreas
Description: as §1, §2, §3, §4, §5, §6, §7, §8, §9

Trypsin [5] = assay: Peptide enzymatic degradation assay, trypsin; settings: as E60, compared with WT TACC3 518-532
[6] = target: T3, Aurora-A122-403-C290A/C393A (N-Myc/Aurora-A interaction) (Homo sapiens, UniProt O14965, C290A/C393A); assay: FA competition assay against FAM-Ahx-N-Myc61-89; type: binding; settings: SD; read-out: IC50 (N-Myc displacement)
T3 construct: Human Aurora-A kinase domain 122-403 wild-type or C290A/ C393A mutant; His tag (pET30TEV vector) (N, cleaved yes); made in house; host or cells: E. coli RIL, co-expressed with lambda phosphatase (Aurora-A)
T3 sequence (O14965 122-403 C290A/C393A): T1 sequence (O14965 122-403 C290A/C393A)
Description: (1 picture or pasted object on this page, not shown here)
FA competition assays were performed using the same plates and buffer as described above, with the initial […]
14 points in a 1/2 regime. […]
after 4 h of incubation to enable appropriate sample equilibration. To prevent sample oxidation, when sulfhydryl peptides were analyzed DTT was added to the buffer (5 mM). In competition mode, the average anisotropy and the average standard deviation of the values derived from equation SI-6 were calculated […]
When using peptides for which full
For consistency, all the data […]
indicating the corresponding SD.
Molecular dynamics (MD) analyses: All peptide–protein complexes were subjected to duplicate MD simulations using YASARA structure.13 Starting from the reported x-ray crystal structure of one molecule of […]
modifications were introduced by direct replacement of the relevant atoms within the structure. When needed, biphenyl constraints were modeled in YASARA by swapping the pertinent amino acids for cysteines and connecting them to biphenyl- fragments. […]
crystal structure), and then minimised structures were generated using the energy minimization function with default settings. The modelled complexes were subjected to MD simulations using YASARA structure macro for fast MD run (www.yasara.org/md_runfast.mcr).14 Briefly, the AMBER14 forcefield was used and […]

Trypsin [7] = settings: pH 7.5
Aurora-A 122-403 [8] = target: T4, Aurora-A 122-403 (Homo sapiens, UniProt O14965); assay: fluorescence anisotropy competition against TPX2
T4 chain: T1 sequence (O14965 122-403 C290A/C393A) with A169C, A272C

Aurora-A 122-403 [9] = target: T4, Aurora-A 122-403; assay: fluorescence anisotropy competition against N-Myc
[10] = N unrestrained fit, single titration

IC50 [1]: 12 ± 1 µM
-TΔS° [2, 10]: -4.47 kcal/mol
Kd [2, 10]: 16.7 µM
N (stoichiometry) [2, 10]: 1.62
ΔG° [2, 10]: -6.52 kcal/mol
ΔH° [2, 10]: -2.06 kcal/mol
half-life at 100 µM [3]: 26 ± 2 min
stability to α-chymotrypsin (in words) [4]: not protected
stability to trypsin (in words) (Trypsin [5]): only partially improved stability
stability to trypsin (in words) (Trypsin [5]; listed as S/E constrained variant): not protected
Molecule: CC(=O)N[C@@H](CC(C)C)C(=O)N[C@@H](CCC(=O)O)C(=O)N[C@@H](CC(C)C)C(=O)N[C@@H](CCCCN)C(=O)N[C@@H](CCC(=O)O)C(=O)N[C@@H](CCC(=O)O)C(=O)N[C@H]1CSCc2ccc(cc2)-c2ccc(cc2)CSC[C@@H](C(=O)N[C@H](C(=O)N[C@@H](CC(C)C)C(N)=O)C(C)C)NC(=O)[C@H](C)NC(=O)[C@@H]2C[C@@H](F)CN2C(=O)[C@H](CC(=O)O)NC(=O)[C@H](CCCNC(=N)N)NC(=O)[C@H](Cc2ccc(I)cc2)NC1=O [TACC3 518-532-S/E-Bph-IF/fP] (Ac-LELKEEC[Phe(4-I)]RD[Pro(trans-4-F)]ACVL-NH2; linker 7-13 via Biphenyl(4,4'-CH2)2)

IC50 [1]: 17 ± 1 µM
-TΔS° ([2]; N restrained fit, Run 1): -5.5 kcal/mol
Kd ([2]; N restrained fit, Run 1): 5.6 µM
ΔG° ([2]; N restrained fit, Run 1): -7.17 kcal/mol
ΔH° ([2]; N restrained fit, Run 1): -1.65 kcal/mol
-TΔS° ([2]; N restrained fit, Run 2): -5.33 kcal/mol
Kd ([2]; N restrained fit, Run 2): 5.9 µM
ΔG° ([2]; N restrained fit, Run 2): -7.15 kcal/mol
ΔH° ([2]; N restrained fit, Run 2): -1.79 kcal/mol
-TΔS° ([2]; N unrestrained fit, Run 1): -5.71 kcal/mol
Kd ([2]; N unrestrained fit, Run 1): 4.6 µM
N (stoichiometry) ([2]; N unrestrained fit, Run 1): 1.06
ΔG° ([2]; N unrestrained fit, Run 1): -7.29 kcal/mol
ΔH° ([2]; N unrestrained fit, Run 1): -1.55 kcal/mol
-TΔS° ([2]; N unrestrained fit, Run 2): -5.43 kcal/mol
Kd ([2]; N unrestrained fit, Run 2): 5.5 µM
N (stoichiometry) ([2]; N unrestrained fit, Run 2): 1.02
ΔG° ([2]; N unrestrained fit, Run 2): -7.17 kcal/mol
ΔH° ([2]; N unrestrained fit, Run 2): -1.74 kcal/mol
-TΔS ([2]; ITC as E40, average of two independent titrations): -5.43 kcal/mol
time resistant to chymotrypsin with no cleavage by-products detected ([4]; HPLC and LC/MS analysis): ~ 6 hr
stability to α-chymotrypsin (in words) [4]: increased resistance
IC50 [6]: 28.3 ± 1.2 µM
t1/2 in the presence of trypsin (Trypsin [7]): ≥ 330 min
stability to trypsin (in words) (Trypsin [5]): increased resistance
Molecule: CC(=O)N[C@@H](CC(C)C)C(=O)N[C@@H](CCC(=O)O)C(=O)N[C@H]1CSCc2ccc(cc2)-c2ccc(cc2)CSC[C@@H](C(=O)N[C@@H](CC(=O)O)C(=O)N2C[C@H](F)C[C@H]2C(=O)N[C@@H](C)C(=O)N[C@@H](CCC(=O)O)C(=O)N[C@H](C(=O)N[C@@H](CC(C)C)C(N)=O)C(C)C)NC(=O)[C@H](Cc2ccc(I)cc2)NC(=O)[C@H](CO)NC(=O)[C@H](CCC(=O)O)NC(=O)[C@H](CCC(=O)O)NC(=O)[C@H](CCCCN)NC1=O [TACC3 518-532-L/R-Bph-IF/fP] (Ac-LECKEES[Phe(4-I)]CD[Pro(trans-4-F)]AEVL-NH2; linker 3-9 via Biphenyl(4,4'-CH2)2)

IC50 (Aurora-A 122-403 [8]): > 200 µM
IC50 (Aurora-A 122-403 [9]): 28 µM
B1: TACC3 L/R-Bph-I/fP 518-532 (peptide)
chain: LELKEESFRDPAEVL
modifications: not fully specified; L520C/R526C biphenyl constraint, (4-I)Phe525, trans-(4-F)Pro528; Aurora-A C290A+C393A
